Where “and” joins values, the source holds several entries; their conditions need not be identical. Equal values may be shown once. Entries after “also recorded” stand apart in the source; their conditions may differ. Read-outs that look alike come from different tables or passages of the source.
Tests used:
type I collagen [1] = test: Collagen type I in HDFs by immunofluorescence; format: cell-based, human; settings: positive drug, VC 200 μg/ml, 48 h, IF
Description: (§1) HDFs were cultured in DMEM with 10% (v/v) FBS and 1% PS at 37° C. in a humidified 5% CO2 incubator. Cells were subcultured using pancreatin solution after reaching confluence. All experiments were performed between the third and eighth passages.
(§2) The synthesis of collagen types I and III was detected using IF and ELISA. HDFs were digested and seeded in a 24-well culture plate on slides at a density of 50,000 cells/well in a complete medium. After reaching 80% confluency, cells were starved with the medium in the absence of serum for 16 h. Cells were then treated with positive controls or active samples (prepared in medium without serum) for an additional 48 h. For analysis and visualisation of types I and III collagens, the supernatants and remaining cell slides were both collected and analysed using ELISA kits and the IF staining method, respectively.
(§3) Collected supernatants were centrifuged at 10,000 rpm for 10 min and used for types I and III collagen ELISA, according to the manufacturer's protocol. The remaining cell slides were washed once with PBS and fixed in polyformaldehyde overnight at 4° C. Subsequently, the slides were treated with 0.5% Triton-X100 for 5 min. After washing, cells were blocked with 1% BSA at room temperature for 1 h. […] ImageJ software was used to quantify collagen expression from different images randomly selected in each group.

type III collagen = test: Collagen type III in HDFs by immunofluorescence; format: cell-based, human; settings: positive drug, VC 200 μg/ml, 48 h, IF
Description: as §1, §2, §3

type I collagen [2] = test: Extracellular collagen type I of HDFs by ELISA; format: cell-based, human; settings: VC, 48 h, culture medium
Description: as §1, §2, §3

[3] = test system: fluorescent AGEs (human serum albumin glycated with D-fructose and glucose); test: Non-enzymatic glycation of HSA, determination of fluorescent AGEs; format: biochemical; settings: for The inhibition rate of fluorescent AGE 360/453 nm (%): single replicate
Description: The anti-glycative ability of samples were assessed by measuring the amounts of fluorescent AGEs. 100 μL human serum albumin (4 mg/ml HSA) was glycated with 100 μL D-fructose (0.05 mol/L) and 100 μL glucose (0.05 mol/L) in the presence of samples in potassium phosphate buffer (0.2 mol/L, pH7.4, 0.06% NaN3) and incubated at 50° C. for […]. The incubated solutions were then used for the following assays. Rutin was the positive control.
The fluorescence intensity of the incubated solutions under the λex/λem=360/453 nm was recorded on microplate reader. The inhibition rate of fluorescent AGEs was calculated by the following equation: […]
where A1 is the fluorescence intensity of glycation system without samples; A2 is the fluorescence intensity of glycation system without HSA and samples; A3 is the fluorescence intensity of glycation system with HSA, sugar and samples; and A4 is the fluorescence intensity of glycation system without HSA.

DPPH· scavenging assay = format: biochemical
[4] = FRAP total antioxidant capacity assay; format: biochemical
Description: Fast colourimetric methods were slightly modified for the in vitro assessment of DPPH· scavenging, ABTS·+ decolourisation capacity, and total antioxidant capacity of FRAP. The stock solutions of derivatisation reagents were diluted as follows before measurement: DPPH was diluted with absolute ethanol until the absorbance was 0.8±0.05 at λ=517 nm. ABTS working solution was prepared with phosphate buffer (0.2 M, pH 7.4) to display absorbance of 0.8±0.05 at λ=729 nm, based on a previous study. The FRAP solution was prepared according to the instructions of the FRAP kit. Absorbances were measured using an automatic microplate reader (Molecular Group Ltd., USA), and all analyses were performed using 96-well plates. All measurements were performed in triplicate, and Trolox was used as a positive control.
For total antioxidant capacity, 180 μl of FRAP solution was mixed with 5 μl of sample solution, and the absorbance was measured after 5 min at […] with PBS as the negative control. FeSO4 solutions (0.15, 0.3, 0.6, 0.9, 1.2, and 1.5 mM) were used for the calibration curve. The FRAP value represents the corresponding concentration of FeSO4 solutions (mM FeSO4). The regression equation from the standard curve was used to calculate the equivalent concentration 1 (EC1) of each sample. EC1 is defined as the concentration of the test sample with an absorbance equivalent to that of 1.0 mmol/L of FeSO4 solution, determined by its calibration curve.

COX-2 = molecular target: T1, COX-2 (Homo sapiens, UniProt P35354); test: Anti-COX-2 assay (COX-2 Inhibitor Screening Kit); format: biochemical
T1 construct: purchased Beyotime S0168
T1 sequence (P35354 18-604): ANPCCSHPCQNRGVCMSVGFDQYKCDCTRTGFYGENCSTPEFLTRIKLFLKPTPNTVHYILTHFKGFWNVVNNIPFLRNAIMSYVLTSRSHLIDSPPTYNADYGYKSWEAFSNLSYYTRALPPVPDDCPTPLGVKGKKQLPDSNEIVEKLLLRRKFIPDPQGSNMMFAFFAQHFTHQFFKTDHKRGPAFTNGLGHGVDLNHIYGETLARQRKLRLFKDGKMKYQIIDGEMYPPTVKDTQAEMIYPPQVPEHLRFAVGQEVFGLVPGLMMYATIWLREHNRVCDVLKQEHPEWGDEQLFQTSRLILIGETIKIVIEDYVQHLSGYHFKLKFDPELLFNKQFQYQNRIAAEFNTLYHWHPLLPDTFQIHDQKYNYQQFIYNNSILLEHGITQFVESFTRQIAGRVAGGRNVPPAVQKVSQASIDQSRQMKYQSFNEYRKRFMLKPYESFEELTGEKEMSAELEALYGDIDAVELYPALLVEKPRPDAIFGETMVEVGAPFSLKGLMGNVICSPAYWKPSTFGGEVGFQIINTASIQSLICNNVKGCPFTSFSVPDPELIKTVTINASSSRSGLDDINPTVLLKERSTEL
Description: Anti-inflammatory activity was assessed by measuring COX-2 enzymatic inhibition on the basis of a described method by using the COX-2 Inhibitor Screening Kit (Beyotime, No. S0168). Celecoxib, a COX-2 inhibitor, was used as a positive control.

[5] = test system: fluorescent AGEs (BSA-fructose/glucose system); test: Fluorescent AGEs formation in a BSA-fructose/glucose system; format: biochemical, bovine; settings: read-out: IC50, AGE formation
Description: The formation of total fluorescent AGEs in glycated samples was assessed by determining their fluorescent intensities at an excitation/emission wavelength of 350/450 nm, as previously described. Glycated protein was prepared in vitro by incubating BSA in the presence of D-glucose (GLC) and D-fructose (FRC). The DOF extract and specific standards were dissolved in DMSO:water (1:4). BSA (4 mg/ml, 100 μl) was preliminary mixed with 50 μl of GLC (0.5 M) and 50 μl of FRC (0.5 M) in 20 mM sodium phosphate buffer (pH 7.4), and then 100 μl samples were added in the 96-well plate and incubated at 37.5° C. for 7 days. All solutions were prepared under sterile conditions and filtered using a 0.22-μm syringe before incubation. The assay was performed in triplicate, and AG was used as a positive control.

[6] = Online UPLC-PDA-MS-ABTS·+ scavenging (post-column derivatisation); format: biochemical; settings: online profiling of DOF extract
Description: Online identification of antioxidant components of DOF extract was performed using a UPLC system (Milford, MA, USA) consisting of a Waters photodiode array detector and a Waters postcolumn derivatisation system supplying fresh ABTS solution (UPLC-PDA-QDa-ABTS). […] The detection wavelengths were set at 280 and 734 nm, and the injection volume of the sample was 10 μl.
To detect radical scavengers, the UPLC system was coupled with a Waters pump, which supplied freshly prepared ABTS·+ solution into a reaction coil (15 m, 0.25 mm ID) with a flow rate of 0.2 ml/min at 37° C. Negative peaks were recorded based on a decrease of absorbance at 729 nm after the reaction of individual compounds with the ABTS·+ radical. For preliminary identification of compounds, a Waters Acquity QDa mass detector in negative ionisation mode was connected in series to PDA with the following parameters: electrospray ion source; cone voltage, 15 V; atomiser, N2; and scanning range, 100-800 m/z.

Question: With O=C1O[C@H]([C@@H](O)CO)C(O)=C1O [vitamin C] as the molecule, how does the “Collagen type I expression, % of control” value (type I collagen [1]) read?
Answer: 190.20 % of control

Question: And the “Collagen type III expression, % of control” value (type III collagen)?
Answer: 125.90 % of control

Question: What about the “increase of secreted collagen type I levels” value (type I collagen [2]) of the same molecule?
Answer: 21.94%

Question: With C[C@@H]1O[C@@H](OC[C@H]2O[C@@H](Oc3c(-c4ccc(O)c(O)c4)oc4cc(O)cc(O)c4c3=O)[C@H](O)[C@@H](O)[C@@H]2O)[C@H](O)[C@H](O)[C@H]1O [Compound 24, Rutin] as the molecule, how does the Average % inhibition ([3]; 3.125 μg/ml) read?
Answer: 2.02%

Question: And the “The inhibition rate of fluorescent AGE 360/453 nm (%)” value (from here on “The inhibition rate … (%)”) ([3]; 3.125 μg/ml)?
Answer: 2.34% and −3.34% and 7.07%

Question: What about the Average % inhibition ([3]; 6.25 μg/ml) of the same molecule?
Answer: 22.00%

Question: And the “The inhibition rate … (%)” value ([3]; 6.25 μg/ml)?
Answer: 18.13% and 25.69% and 22.17%

Question: And the Average % inhibition ([3]; 12.5 μg/ml)?
Answer: 41.15%

Question: What about the “The inhibition rate … (%)” value ([3]; 12.5 μg/ml) of the same molecule?
Answer: 35.84% and 42.05% and 45.57%

Question: And the Average % inhibition ([3]; 25 μg/ml)?
Answer: 61.91%

Question: And the “The inhibition rate … (%)” value ([3]; 25 μg/ml)?
Answer: 55.85% and 64.92% and 64.97%

Question: What about the Average % inhibition ([3]; 50 μg/ml) of the same molecule?
Answer: 75.80%

Question: And the “The inhibition rate … (%)” value ([3]; 50 μg/ml)?
Answer: 74.72% and 79.59% and 73.08%

Question: What about the Average % inhibition ([3]; 100 μg/ml) of the same molecule?
Answer: 81.90%

Question: And the “The inhibition rate … (%)” value ([3]; 100 μg/ml)?
Answer: 81.88% and 81.51% and 82.32%

Question: What about the Average % inhibition ([3]; 200 μg/ml) of the same molecule?
Answer: 85.69%

Question: And the “The inhibition rate … (%)” value ([3]; 200 μg/ml)?
Answer: 84.54% and 85.94% and 86.58%

Question: What about the Average % inhibition ([3]; 400 μg/ml) of the same molecule?
Answer: 91.19%

Question: And the “The inhibition rate … (%)” value ([3]; 400 μg/ml)?
Answer: 90.91% and 91.13% and 91.53%

Question: What about the “antioxidant ability by DPPH (in words)” value (DPPH· scavenging assay) of the same molecule?
Answer: great antioxidant potency

Question: What about the “antioxidant ability by DPPH (in words)” value (DPPH· scavenging assay; listed as rutin) of the same molecule?
Answer: selective and significant antioxidant abilities

Question: What about the “antioxidant ability by FRAP (in words)” value [4] of the same molecule?
Answer: great antioxidant potency

Question: What about the FRAP EC1 ([4]; Table 11, mean ± SD, n = 3) of the same molecule?
Answer: 205 µM

Question: What about the “antioxidant ability by FRAP (in words)” value ([4]; listed as rutin) of the same molecule?
Answer: selective and significant antioxidant abilities

Question: And the “COX-2 inhibition (in words)” value (COX-2)?
Answer: great COX-2 inhibition; also recorded: outstanding COX-2 inhibitory effects

Question: And the “COX-2 inhibition (in words)” value (COX-2; listed as rutin)?
Answer: potent COX-2 inhibitory capacity

Question: What about the IC50 [5] of the same molecule?
Answer: 222 ± 13.5 µM

Question: What about the “ABTS radical scavenging by size of negative peaks at 734 nm (in words)” value [6] of the same molecule?
Answer: strongest ABTS radical scavengers
